The values that follow are results of earlier work, collected in patent publication US20050226974A1 (priority 2004, published 2005).

The test system of data set [1] is common food spoilage yeasts and moulds. The conditions noted are these: most strains of common food spoilage yeasts and moulds.
Another data set relates to yeasts. The conditions noted are these: some yeasts.

As for `C[C@@H]1C/C=C/C=C/C=C/C=C/[C@H](O[C@@H]2O[C@H](C)[C@@H](O)[C@H](N)[C@@H]2O)C[C@@H]2O[C@](O)(C[C@@H](O)C[C@H]3O[C@@H]3/C=C/C(=O)O1)C[C@H](O)[C@H]2C(=O)O` [Natamycin], the “solubility dependence on pH” value is “most soluble at high or low pH”. In data set [1], the “concentrations inhibiting most strains” value is 1-15 ppm. In the data set with yeasts, the minimal inhibitory concentrations result is reported as “less than 3 ppm”. Besides, under “in water”, the maximum solubility entry is given as “around 40 ppm”.
